Source: patent US20250270200A1, “CTPS1 INHIBITORS AND USES THEREOF” (Nimbus Clotho, Inc., priority 2022, published 2025)

Molecular target: T1, human CTPS1 (Homo sapiens, UniProt P17812)
T1 sequence (P17812 1-591): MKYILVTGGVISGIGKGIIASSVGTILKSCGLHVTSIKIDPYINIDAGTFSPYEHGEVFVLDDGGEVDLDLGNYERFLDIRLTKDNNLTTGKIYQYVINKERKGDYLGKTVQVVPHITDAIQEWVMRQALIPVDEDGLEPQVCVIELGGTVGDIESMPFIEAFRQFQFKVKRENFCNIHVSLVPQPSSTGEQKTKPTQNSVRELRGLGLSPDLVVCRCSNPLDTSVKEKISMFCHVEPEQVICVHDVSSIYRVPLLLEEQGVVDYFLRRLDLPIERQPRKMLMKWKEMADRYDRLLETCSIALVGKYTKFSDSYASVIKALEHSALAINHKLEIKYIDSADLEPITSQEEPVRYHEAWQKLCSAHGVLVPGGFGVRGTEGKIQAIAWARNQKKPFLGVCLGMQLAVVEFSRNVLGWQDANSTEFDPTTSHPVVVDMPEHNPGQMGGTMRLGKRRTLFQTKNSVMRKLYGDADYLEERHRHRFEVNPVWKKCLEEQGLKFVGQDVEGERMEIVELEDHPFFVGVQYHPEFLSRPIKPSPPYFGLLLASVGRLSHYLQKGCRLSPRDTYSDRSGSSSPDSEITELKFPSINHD
Assay: ADP-Glo assay, human CTPS1 enzyme inhibition
Type: biochemical
Details: wild-type human CTPS1 25 nM; ATP 120 μM, UTP 160 μM, GTP 60 μM, L-glutamine 100 μM; 25 degrees C.; read-out: ADP-Glo_WT_hCTPS1—25 nM_IC50 (IC50)
Procedure, shortened: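 ADP-Glo luminescence quantified ADP produced by 25 nM purified human CTPS1 (full length, FLAG-His tagged) at 25° C within the linear phase. Final substrates: ATP 120 μM, UTP 160 μM, GTP 60 μM, L-glutamine 100 μM; 1% DMSO; pH 7.4 HEPES buffer with Mg2+, KCl, DTT. Compound pre-incubated with enzyme 10 min, then with ATP/UTP 10 min.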

Row | IC50 [nM] | SMILES
1 | 5 to 25 | CCOc1cncc(-c2cnc(C(=O)N[C@@H](COC)c3cc(NS(=O)(=O)C4CC4)ncn3)s2)n1 (single isomer, unassigned) [II-7]
2 | 50 to 100 | CCOc1cncc(-c2cnc(C(=O)N[C@H](c3cccc(NS(=O)(=O)C(F)F)c3)[C@@H](C)CN3CCCCC3)s2)n1 (single isomer, unassigned) [II-14]

Same assay, conditions: wild-type human CTPS1, 25 nM enzyme; ADP-Glo; read-out: ADP-Glo_WT_hCTPS1—25 nM_IC50 (IC50)

Row | IC50 [nM] | SMILES
3 | 5 to 25 | C[C@@H](CO)[C@H](NC(=O)c1ncc(-c2cnn3ccc(Cl)cc23)s1)c1cc(NS(=O)(=O)C2CC2)ccn1 [I-232, 5-(5-chloropyrazolo[1,5-a]pyridin-3-yl)-N-((1S,2R)-1-(4-(cyclopropanesulfonamido)pyridin-2-yl)-3-hydroxy-2-methylpropyl)thiazole-2-carboxamide]
4 | 25 to 50 | CCOc1cncc(-c2cnc(C(=O)N[C@H](CN3CCCC3=O)c3cc(NS(=O)(=O)C4CC4)ccn3)s2)n1 [I-137, (R)-N-(1-(4-(cyclopropanesulfonamido)pyridin-2-yl)-2-(2-oxopyrrolidin-1-yl)ethyl)-5-(6-ethoxypyrazin-2-yl)thiazole-2-carboxamide]
5 | > 100 | CCOc1cncc(-c2cnc(C(=O)N[C@H](C[C@@H]3CCCCN3C(C)C)c3cc(NS(=O)(=O)C4CC4)ccn3)s2)n1 (single isomer, unassigned) [I-29]
6 | 5 to 25 | CCOc1cncc(-c2cnc(C(=O)N[C@H](COC)c3nccc(NS(=O)(=O)C4CC4)c3F)s2)n1 (single isomer, unassigned) [I-12]
7 | > 100 | CCOc1ccn2ncc(-c3cnc(C(=O)NCc4cc(NS(=O)(=O)C5CC5)ccn4)s3)c2c1 [I-170, N-((4-(cyclopropanesulfonamido)pyridin-2-yl)methyl)-5-(5-ethoxypyrazolo[1,5-a]pyridin-3-yl)thiazole-2-carboxamide]
8 | 25 to 50 | O=C(N[C@H](CN1CCCC1)c1cccc(NS(=O)(=O)C(F)F)c1)c1ncc(-c2cnn3ccc(Cl)cc23)s1 [I-220, (S)-5-(5-chloropyrazolo[1,5-a]pyridin-3-yl)-N-(1-(3-((difluoromethyl)sulfonamido)phenyl)-2-(pyrrolidin-1-yl)ethyl)thiazole-2-carboxamide]
9 | 5 to 25 | CCOc1cncc(-c2cnc(C(=O)N[C@@H](c3cc(NS(=O)(=O)C4CC4)ccn3)[C@@H]3CCN(C4CCCC4)C3)s2)n1 [I-95, N-((R)-((R)-1-cyclopentylpyrrolidin-3-yl)(4-(cyclopropanesulfonamido)pyridin-2-yl)methyl)-5-(6-ethoxypyrazin-2-yl)thiazole-2-carboxamide]
10 | 5 to 25 | CCOc1cncc(-c2cnc(C(=O)N[C@H](CCN3CCCCC3)c3cccc(NS(=O)(=O)C(F)F)c3)s2)n1 [I-184, (R)-N-(1-(3-((difluoromethyl)sulfonamido)phenyl)-3-(piperidin-1-yl)propyl)-5-(6-ethoxypyrazin-2-yl)thiazole-2-carboxamide]
11 | 50 to 100 | CCOc1cncc(-c2cnc(C(=O)N[C@@H](CN3C[C@H]4C[C@@H](C3)C4)c3cc(NS(=O)(=O)C4CC4)ccn3)s2)n1 [I-151, N-((S)-2-((1R,5R)-3-azabicyclo[3.1.1]heptan-3-yl)-1-(4-(cyclopropanesulfonamido)pyridin-2-yl)ethyl)-5-(6-ethoxypyrazin-2-yl)thiazole-2-carboxamide]
12 | 5 to 25 | CCOc1cncc(-c2cnc(C(=O)N[C@@H](c3cc(NS(=O)(=O)C4CC4)ccn3)[C@H]3CCN(C4CCCC4)C3)s2)n1 [I-96, N-((R)-((S)-1-cyclopentylpyrrolidin-3-yl)(4-(cyclopropanesulfonamido)pyridin-2-yl)methyl)-5-(6-ethoxypyrazin-2-yl)thiazole-2-carboxamide]
13 | 50 to 100 | CCOc1cncc(-c2cnc(C(=O)N[C@H](c3cc(NS(=O)(=O)C4CC4)ccn3)[C@@H]3CCCN3C)s2)n1 [I-115, N-((S)-(4-(cyclopropanesulfonamido)pyridin-2-yl)((S)-1-methylpyrrolidin-2-yl)methyl)-5-(6-ethoxypyrazin-2-yl)thiazole-2-carboxamide]
14 | 25 to 50 | CCOc1cncc(-c2ccc(C(=O)N[C@@H](COC)c3cc(NS(=O)(=O)C4CC4)ccn3)c(F)c2)n1 [I-282, (R)-N-(1-(4-(cyclopropanesulfonamido)pyridin-2-yl)-2-methoxyethyl)-4-(6-ethoxypyrazin-2-yl)-2-fluorobenzamide]
15 | 5 to 25 | CCOc1cncc(-c2cnc(C(=O)N[C@H](CO)c3cc(NS(=O)(=O)C4CC4)ccn3)s2)n1 [I-263, (S)-N-(1-(4-(cyclopropanesulfonamido)pyridin-2-yl)-2-hydroxyethyl)-5-(6-ethoxypyrazin-2-yl)thiazole-2-carboxamide]
16 | 50 to 100 | CCOc1cncc(-c2ccc(C(=O)N[C@@H](CN3CCOCC3)c3cc(NS(=O)(=O)C4CC4)ccn3)c(F)c2)n1 [I-143, (S)-N-(1-(4-(cyclopropanesulfonamido)pyridin-2-yl)-2-morpholinoethyl)-4-(6-ethoxypyrazin-2-yl)-2-fluorobenzamide]
17 | 5 to 25 | CCOc1cncc(-c2cnc(C(=O)N[C@@H](c3cc(NS(=O)(=O)C4CC4)ccn3)[C@@H](C)O)s2)n1 [I-265, N-((1S,2R)-1-(4-(cyclopropanesulfonamido)pyridin-2-yl)-2-hydroxypropyl)-5-(6-ethoxypyrazin-2-yl)thiazole-2-carboxamide]
18 | 5 to 25 | O=C(N[C@@H](c1cc(NS(=O)(=O)C2CC2)ccn1)[C@@H]1CCOC1)c1ncc(-c2cnn3ccc(Cl)cc23)s1 (single isomer, unassigned) [I-24]
19 | 5 to 25 | CCOc1cncc(-c2cnc(C(=O)N[C@@H](CN3C[C@H]4C[C@@H]3CO4)c3cccc(NS(=O)(=O)C(F)F)c3)s2)n1 [I-204, N-((R)-2-((1R,4R)-2-oxa-5-azabicyclo[2.2.1]heptan-5-yl)-1-(3-((difluoromethyl)sulfonamido)phenyl)ethyl)-5-(6-ethoxypyrazin-2-yl)thiazole-2-carboxamide]
20 | 50 to 100 | CCOc1cncc(-c2cnc(C(=O)N[C@@H](C[C@H]3COCCN3C)c3cc(NS(=O)(=O)C4CC4)ccn3)s2)n1 [I-102, N-((S)-1-(4-(cyclopropanesulfonamido)pyridin-2-yl)-2-((S)-4-methylmorpholin-3-yl)ethyl)-5-(6-ethoxypyrazin-2-yl)thiazole-2-carboxamide]
21 | 25 to 50 | CCOc1cncc(-c2cnc(C(=O)N[C@@H](Cn3nccn3)c3cc(NS(=O)(=O)C4CC4)ccn3)s2)n1 [I-157, (S)-N-(1-(4-(cyclopropanesulfonamido)pyridin-2-yl)-2-(2H-1,2,3-triazol-2-yl)ethyl)-5-(6-ethoxypyrazin-2-yl)thiazole-2-carboxamide]
22 | 5 to 25 | O=C(NC(CN1C[C@H]2C[C@@H]1CO2)c1cc(NS(=O)(=O)C2CC2)ccn1)c1ncc(-c2cnn3ccc(Cl)cc23)s1 (stereo partly drawn) [I-159, N-(2-((1R,4R)-2-oxa-5-azabicyclo[2.2.1]heptan-5-yl)-1-(4-(cyclopropanesulfonamido)pyridin-2-yl)ethyl)-5-(5-chloropyrazolo[1,5-a]pyridin-3-yl)thiazole-2-carboxamide]
23 | ≤ 5 | CCOc1cncc(-c2cnc(C(=O)N[C@@H](CN3C[C@@H]4CC[C@H]3CO4)c3cc(NS(=O)(=O)C4CC4)ccn3)s2)n1 [I-135, N-((S)-2-((1S,4S)-2-oxa-5-azabicyclo[2.2.2]octan-5-yl)-1-(4-(cyclopropanesulfonamido)pyridin-2-yl)ethyl)-5-(6-ethoxypyrazin-2-yl)thiazole-2-carboxamide]
24 | 25 to 50 | O=C(NC(CCN1CCCCC1)c1cc(NS(=O)(=O)C2CC2)ccn1)c1ncc(-c2cnn3ccc(Cl)cc23)s1 (stereo not shown) [I-8, 5-(5-chloropyrazolo[1,5-a]pyridin-3-yl)-N-(1-(4-(cyclopropanesulfonamido)pyridin-2-yl)-3-(piperidin-1-yl)propyl)thiazole-2-carboxamide]
25 | 5 to 25 | CCOc1cncc(-c2cnc(C(=O)N[C@H](c3cccc(NS(=O)(=O)C(F)F)c3)[C@@H](C)N3CCOCC3)s2)n1 [I-224, N-((1R,2R)-1-(3-((difluoromethyl)sulfonamido)phenyl)-2-morpholinopropyl)-5-(6-ethoxypyrazin-2-yl)thiazole-2-carboxamide]
26 | 5 to 25 | CCOc1cncc(-c2cnc(C(=O)N[C@@H](CN3CC[C@]4(CCOC4)C3)c3cc(NS(=O)(=O)C4CC4)ccn3)s2)n1 [I-127, N-((S)-1-(4-(cyclopropanesulfonamido)pyridin-2-yl)-2-((S)-2-oxa-7-azaspiro[4.4]nonan-7-yl)ethyl)-5-(6-ethoxypyrazin-2-yl)thiazole-2-carboxamide]
27 | 50 to 100 | CCOc1cncc(-c2cnc(C(=O)N[C@@H](CCN(C)C3CCCCC3)c3cc(NS(=O)(=O)C4CC4)ccn3)s2)n1 (single isomer, unassigned) [I-13]
28 | 5 to 25 | CCOc1cncc(-c2cnc(C(=O)N[C@@H](c3cccc(NS(=O)(=O)C(F)F)c3)C(C)(C)O)s2)n1 [I-290, (S)-N-(1-(3-((difluoromethyl)sulfonamido)phenyl)-2-hydroxy-2-methylpropyl)-5-(6-ethoxypyrazin-2-yl)thiazole-2-carboxamide]
